Read-outs that look alike come from different tables or passages of the source.
Tests used:
[1] = Plasma and cerebrospinal fluid penetration following IV administration to rats; details: for Compound conc. in CSF / Compound conc. in plasma / Plasma/CSF partitioning coefficient / concentration at 2 min: rats; for concentration at 2 min: male, Sprague Dawley, rat, in vivo, iv, 10 mg/kg, Compound conc. in CSF
human μ-opioid receptor [2] = target: T1, human μ-opioid receptor (Homo sapiens, UniProt P35372); experiment: In vitro human μ-opioid receptor antagonist cellular functional assay (cAMP, HTRF); format: cell-based; details: for EC50: CHO cells expressing human μ-opioid receptor
T1 construct: expressed in transfected cells; host or cells: CHO (Chinese hamster ovary) cells
T1 sequence (P35372 whole entry): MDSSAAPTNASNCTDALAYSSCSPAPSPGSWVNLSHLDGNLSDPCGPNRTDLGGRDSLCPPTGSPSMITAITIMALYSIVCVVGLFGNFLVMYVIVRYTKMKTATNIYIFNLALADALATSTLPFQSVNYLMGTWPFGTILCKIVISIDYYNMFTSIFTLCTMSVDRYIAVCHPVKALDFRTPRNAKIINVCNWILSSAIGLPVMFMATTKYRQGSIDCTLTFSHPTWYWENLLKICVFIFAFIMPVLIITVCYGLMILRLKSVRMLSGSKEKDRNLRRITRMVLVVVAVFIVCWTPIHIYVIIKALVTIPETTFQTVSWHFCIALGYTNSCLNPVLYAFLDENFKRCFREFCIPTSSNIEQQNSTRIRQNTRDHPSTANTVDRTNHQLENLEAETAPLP
Description: (§1) This Example measures the ability of certain compounds of the present disclosure to effect an agonist or antagonist response when exposed to recombinant human μ-opioid receptor expressed in CHO cells.
(§2) The general procedure follows the protocol described by Wang, J.-B., Johnson, P. S., Perscio, A. M., Hawkins, A. L., Griffin, C. A. and Uhl, G. R. (1994). FEBS Lett., 338: 217-222. More specifically, the assays included each of the compounds indicated in Table 1 and recombinant Chinese hamster ovary (CHO) cells expressing the human μ-opioid receptor on their cell surfaces. The control reaction included 1 μM DAMGO. The reaction mixtures were incubated at 37° C. for 10 min, and the reaction product was cyclic AMP (cAMP). The samples were submitted to homogeneous time resolved fluorescence (HTRF®). EC50 values (concentration producing a half-maximal specific response) were determined by non-linear regression fit using the Hillplot software.

CNS opioid receptors = experiment: Rat tail flick latency assay, morphine induced analgesia; format: in vivo, Sprague Dawley rats; details: antagonist subcutaneously 70 min after 5 mg/kg morphine; Compound AN-1, AN-6 0.3 mg/kg, naltrexone 1.8 mg/kg; FIG. 8
Experimental: A rat tail flick latency assay (see, e.g., Tejwani G et al., 2002, Anesth Analg 94, 1542-1546) was used to determine whether peripheral opioid antagonists of the embodiments were capable of effecting antagonist activity at opioid receptors in the central nervous system. In such an assay, the tails of rats are exposed to a noxious stimulus, such as heat, and tail withdrawal latency is measured. The latency (i.e., time between exposure and reaction) is an indication of the amount of pain experienced by the rat.
In this study, the tails of healthy male Sprague Dawley rats (5 per group) were painted with India ink (i.e., a 6-cm portion, starting at the tip). The rats were then placed in Broome Restrainers and allowed to acclimate for at least 15 min. At the conclusion of the acclimation period, baseline tail withdrawal latencies (baseline latency) were measured by exposing the rats to a focused light beam of 80 volts at a position 6.5 cm above the tail until the rats flicked their tail out of the path of the light beam. This step was repeated twice for each rat, in two spots, i.e., 2 cm and 4 cm from the tip of the tail. The responses were averaged and used as a baseline latency value for comparison to post-drug treatment latency values.

[3] = Pharmacokinetics following IV administration to rats (plasma, HPLC/MS); details: male, Sprague Dawley, rat
[4] = Pharmacokinetics following PO administration to rats (plasma, HPLC/MS); details: male, Sprague Dawley, rat, 20 mg/kg
Experimental: At specified time points, blood samples were drawn, harvested for plasma via centrifugation at 5,400 rpm at 4° C. for 5 min, and 100 microliters (μl) plasma transferred from each sample into a fresh tube containing 2 μl of 50% formic acid. The tubes were vortexed for 5-10 seconds, immediately placed in dry ice and then stored in a −80° C. freezer until analysis by HPLC/MS.
(§3) At specified time points, blood samples were drawn, harvested for plasma via centrifugation at 5,400 rpm at 4° C. for 5 min, and 100 μl plasma transferred from each sample into a fresh tube containing 2 μl of 50% formic acid. The tubes were vortexed for 5-10 seconds, immediately placed in dry ice and then stored in a −80° C. freezer until analysis by HPLC/MS.
as §3, §3

[5] = male, Sprague Dawley, rat, in vivo, iv, 10 mg/kg
inflammatory pain = experiment: Carrageenan-induced inflammatory paw model (Randall Selitto test); format: in vivo, Sprague-Dawley rats; details: 200 mg/kg Compound AG-2 oral gavage three hours after carrageenan; FIG. 10
Experimental: The carrageenan-induced inflammatory paw model (see, e.g., Bileviciute-Ljungar I et al, 2006, J Pharmacol Exp Ther 317, 220-227) was used to assess the ability of peripheral opioid agonist Compound AG-2 to reduce inflammatory pain, by measuring paw withdrawal latency in response to mechanical stimulation of the paw.
Sprague-Dawley rats, fasted for approximately 18 hours prior to compound administration, were used for this study. Rats were injected in the plantar surface of the right hindpaw with 100 ul of a 1% carrageenan solution formulated in water (carrageenan available from Spectrum Chemical Manufacturing Corporation, Gardena, Calif.) three hours prior to compound administration, in order to elicit maximum edema formation. The hindpaw withdrawal latency to mechanical stimulation for each paw was tested before compound administration for use as a pre-treatment baseline, and at specific time points after compound administration using the Randall Selitto test (instrument available from IITC Inc. Life Science, Woodland Hills, Calif.). Briefly, the hindpaw was pinched until the animal retracted its paw. The amount of force (in grams) required to elicit a withdrawal response was assessed. Two repeat measures were taken at each time point, and the averaged value from the inflamed paw was used to quantify the percentage of change from the pre-treatment baseline. […]

human μ-opioid receptor [6] = target: T1, human μ-opioid receptor; experiment: cell-based; details: for EC50: CHO cells expressing human μ-opioid receptor, read-out: Agonist EC50
Description: as §1, §2

[7] = IV 10 mg/kg of each compound, 2-min time point (Table 12)
[8] = IV 10 mg/kg Compound AN-1, 2-minute time point

C=CCN1CC[C@]23c4c5ccc(O)c4O[C@H]2C(OC(=O)N(C)CCNC(=O)[C@@H](CCCNC(=N)N)NC(=O)CC(=O)O)=CC[C@@]3(O)C1C5 [Compound AN-4, N-(naloxone-6-enol-carbonyl-methylamino)ethylamine-D-arginine-malonic acid]
Compound conc. in CSF [1, 7]: 101 ng/mL | Compound conc. in plasma [1, 7]: 49,200 ng/mL | Plasma/CSF partitioning coefficient [1, 7]: 487

CC(=O)N[C@H](CC(=O)O)C(=O)NCCN(C)C(=O)OC1=CC[C@@]2(O)C3Cc4ccc(O)c5c4[C@@]2(CCN3CC2CC2)[C@H]1O5 [Compound AN-7, N-(naltrexone-6-enol-carbonyl-methylamino)ethylamine-D-aspartic acid-acetate]
EC50 (human μ-opioid receptor [2]; Antagonist EC50, Table 15, Example 24): 300 nM | NTX/Compound AN-7 relative potency (human μ-opioid receptor [2]; EC50 at the human μ-opioid receptor, naltrexone to Compound AN-7): 8.6 | Compound conc. in CSF [1, 7]: 462 ng/mL | Compound conc. in plasma [1, 7]: 76,600 ng/mL | Plasma/CSF partitioning coefficient [1, 7]: 166

CN(CCNC(=O)[C@@H](CCCNC(=N)N)NC(=O)CC(=O)O)C(=O)OC1=CC[C@@]2(O)[C@H]3Cc4ccc(O)c5c4[C@@]2(CCN3CC2CC2)[C@H]1O5 [Compound AN-1, N-(naltrexone-6-enol-carbonyl-methylamino)ethylamine-D-arginine-malonic acid]
effect on morphine induced analgesia (% MPE, tail flick) (CNS opioid receptors): no inhibition of analgesia | EC50 (human μ-opioid receptor [2]; Antagonist EC50, Table 1, Example 9, 37° C. 10 min): 180 nM | NTX/Compound AN-1 relative potency (human μ-opioid receptor [2]; EC50 at the human μ-opioid receptor, naltrexone to Compound AN-1): 6.0 | Cmax ([3]; 10 mg/kg): 46300 ng/mL | AUC [4]: 139 ± 32 ng·h/mL | Cmax [4]: 41 ± 13 ng/mL | Tmax [4]: 45 ± 17.4 min | relative plasma/CSF partitioning coefficient of Compound AN-1 to naltrexone ([1]; 620/9.6): about 65 | Compound conc. in CSF [1, 8]: 74.7 ng/mL | Compound conc. in plasma [1, 8]: 46,300 ng/mL | Plasma/CSF partitioning coefficient [1, 8]: 620

O=C1CC[C@@]2(O)[C@H]3Cc4ccc(O)c5c4[C@@]2(CCN3CC2CC2)[C@H]1O5 [Naltrexone, naltrexone, reference compound]
effect on morphine induced analgesia (% MPE, tail flick) (CNS opioid receptors): rapid inhibition of analgesia | Compound conc. in plasma [5]: 9.17 ng/mL | concentration at 2 min [1, 8]: 7.44 ng/mL | concentration at 2 min ([1]; IV 10 mg/kg Compound AN-3, 2-minute time point): 0.813 ng/mL | Compound conc. in plasma [1, 8]: 71.1 ng/mL

CN(CCNC(=O)[C@@H](CCCCN)NC(=O)CC(=O)O)C(=O)OC1=CC[C@@]2(O)C3Cc4ccc(O)c5c4[C@@]2(CCN3CC2CC2)[C@H]1O5 [Compound AN-6, N-(naltrexone-6-enol-carbonyl-methylamino)ethylamine-D-lysine-malonic acid]
effect on morphine induced analgesia (% MPE, tail flick) (CNS opioid receptors): no inhibition of analgesia | Compound conc. in CSF [1, 7]: 95.0 ng/mL | Compound conc. in plasma [1, 7]: 79,400 ng/mL | Plasma/CSF partitioning coefficient [1, 7]: 836

COc1ccc2c3c1O[C@H]1C(OC(=O)N(C)CCNC(=O)[C@@H](CCCNC(=N)N)NC(=O)CC(=O)O)=CC[C@@]4(O)[C@@H](C2)N(C)CC[C@]314 [Compound AG-2, N-(oxycodone-6-enol-carbonyl-methylamino)ethylamine-D-arginine-malonic acid]
increase in pain tolerance compared to the untreated rats (inflammatory pain): approximately 50% | Compound conc. in CSF [5]: 22.8 ng/mL | Compound conc. in plasma [5]: 28,600 ng/mL | Plasma/CSF partitioning coefficient [5]: 1,254 | OC/Compound AG-2 relative potency (human μ-opioid receptor [6]): 10.9 | EC50 (human μ-opioid receptor [6]; Table 1, Example 9, 37° C. 10 min): 850 nM | Cmax ([3]; 2 mg/kg): 3410 ng/mL | Cmax [4]: 46.1 ± 0.9 ng/mL | Tmax [4]: 37.5 ± 15 min

CN(CCNC(=O)[C@@H](CCCNC(=N)N)NC(=O)CC(=O)O)C(=O)OC1=CCC2C3Cc4ccc(O)c5c4[C@@]2(CCN3C)[C@H]1O5 (stereo partly drawn) [Compound AG-4, N-(hydromorphone-6-enol-carbonyl-methyl-amino)ethylamine-D-arginine-malonic acid]
HM/Compound AG-4 relative potency (human μ-opioid receptor [6]; EC50 at the human μ-opioid receptor, hydromorphone to Compound AG-4): 16.1 | EC50 (human μ-opioid receptor [6]; Table 15, Example 24): 37 nM
